Source: PubChem BioAssay AID256 (DTP/NCI, 2004)
Where “and” joins values, the source holds several entries; their conditions need not be identical. Equal entries are not always repeated. Inconclusive results and toxic doses are left out. Rule for the calls: active = survival T/C of 150% or more; inactive = T/C below 125% in these data.

System: CD2F1 mice, L1210 leukemia ip, survival T/C
Assay: NCI In Vivo Anticancer Drug Screen. Data for tumor model L1210 Leukemia (intraperitoneal) in CD2F1 (CDF1) mice
Conditions: higher = longer survival
In short: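 Each value reflects a quotient of treated over vehicle control outcomes in mice with a transplanted tumor.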

[1] = endpoint: mean survival time, dose: 50.0 mg/kg/injection, schedule: Q01DX009 (ip), vehicle: saline
[2] = endpoint: mean survival time, dose: 100.0 mg/kg/injection, schedule: Q01DX009 (ip), vehicle: saline
[3] = endpoint: mean survival time, dose: 200.0 mg/kg/injection, schedule: Q01DX009 (ip), vehicle: saline
[4] = endpoint: mean survival time, dose: 400.0 mg/kg/injection, schedule: Q01DX009 (ip), vehicle: saline
[5] = endpoint: mean survival time, dose: 50.0 mg/kg/injection, schedule: Q01DX009 (ip), vehicle: saline with Tween-80
[6] = endpoint: mean survival time, dose: 100.0 mg/kg/injection, schedule: Q01DX009 (ip), vehicle: saline with Tween-80
[7] = endpoint: mean survival time, dose: 200.0 mg/kg/injection, schedule: Q01DX009 (ip), vehicle: saline with Tween-80
[8] = endpoint: mean survival time, dose: 25.0 mg/kg/injection, schedule: Q01DX009 (ip), vehicle: saline with Tween-80
[9] = endpoint: mean survival time, dose: 100.0 mg/kg/injection, schedule: Q01DX001 (ip), vehicle: saline with Tween-80
[10] = endpoint: mean survival time, dose: 200.0 mg/kg/injection, schedule: Q01DX001 (ip), vehicle: saline with Tween-80
[11] = endpoint: mean survival time, dose: 400.0 mg/kg/injection, schedule: Q01DX001 (ip), vehicle: saline with Tween-80
[12] = endpoint: mean survival time, dose: 400.0 mg/kg/injection, schedule: Q01DX009 (ip), vehicle: saline with Tween-80
[13] = endpoint: mean survival time, dose: 12.5 mg/kg/injection, schedule: Q04DX003 (ip), vehicle: saline with Tween-80
[14] = endpoint: mean survival time, dose: 50.0 mg/kg/injection, schedule: Q01DX001 (ip), vehicle: saline
[15] = endpoint: mean survival time, dose: 100.0 mg/kg/injection, schedule: Q01DX001 (ip), vehicle: saline

Measured: T/C

NC(CSC1(c2ccccc2)c2ccccc2-c2ccccc21)C(=O)O (centres undefined)
inactive: endpoint: mean survival time, dose: 25.0 mg/kg/injection, schedule: Q01DX009 (ip), vehicle: saline 96 % of control | [1] 102 % of control | [2] 100 % of control | [3] 100 % of control | [4] 110 % of control

CCOc1ccc(N2C(=O)CSC2=S)cc1
inactive: [5] 95 % of control | [6] 87 % of control | [7] 93 % of control

CO[C@H]1C[C@@H]2CC[C@@H](C)[C@@](O)(O2)C(=O)C(=O)N2CCCC[C@H]2C(=O)O[C@H]([C@H](C)C[C@@H]2CC[C@@H](O)[C@H](OC)C2)CC(=O)[C@H](C)C=C(C)[C@@H](O)[C@@H](OC)C(=O)[C@H](C)C[C@H](C)/C=C/C=C/C=C1C
inactive: endpoint: mean survival time, dose: 12.5 mg/kg/injection, schedule: Q01DX009 (ip), vehicle: saline with Tween-80 107 % of control | [8] 113 % of control | [5] 114 % of control | [9] 113 % of control | [6] 112 % of control | [10] 111 % of control | [7] 104 % of control | [11] 120 % of control

CC1(C)Cc2ccccc2O1
inactive: [6] 104 % of control | [7] 91 % of control

COC(=O)C(NC(=O)C(CSC(c1ccccc1)(c1ccccc1)c1ccccc1)NC(c1ccccc1)(c1ccccc1)c1ccccc1)C(C)C (centres undefined)
inactive: [1] 98 % of control | [2] 92 % of control | [3] 97 % of control | [4] 89 % of control

COC(=O)C12OCC34C(CC5C(C)=CC(=O)C(O)C5(C)C3C(O)C1O)OC(=O)C(OC(=O)CC(C)C)C24 (centres undefined)
inactive: endpoint: mean survival time, dose: 0.12 mg/kg/injection, schedule: Q01DX009 (ip), vehicle: saline + alcohol 101 % of control | endpoint: mean survival time, dose: 0.13 mg/kg/injection, schedule: Q01DX009 (ip), vehicle: saline + alcohol 102 % of control | endpoint: mean survival time, dose: 0.25 mg/kg/injection, schedule: Q01DX009 (ip), vehicle: saline + alcohol 100 % of control and 102 % of control | endpoint: mean survival time, dose: 0.5 mg/kg/injection, schedule: Q01DX009 (ip), vehicle: saline + alcohol 113 % of control and 95 % of control | endpoint: mean survival time, dose: 1.0 mg/kg/injection, schedule: Q01DX009 (ip), vehicle: saline + alcohol 101 % of control and 105 % of control | endpoint: mean survival time, dose: 2.0 mg/kg/injection, schedule: Q01DX009 (ip), vehicle: saline + alcohol 97 % of control and 104 % of control | endpoint: mean survival time, dose: 4.0 mg/kg/injection, schedule: Q01DX009 (ip), vehicle: saline + alcohol 104 % of control and 109 % of control

COc1ccc(NC(=O)C(c2ccccc2)c2ccccc2)cc1
inactive: [6] 105 % of control | [7] 102 % of control | [12] 92 % of control

CCOC(=O)CN1C(=O)C(Cl)=C(Cl)C1=O
inactive: [13] 98 % of control

Cc1ccc(C2(C(=O)O)CCCC2)cc1
inactive: [6] 96 % of control | endpoint: mean survival time, dose: 100.0 mg/kg/injection, schedule: Q04DX003 (ip), vehicle: saline with Tween-80 97 % of control | [7] 97 % of control | endpoint: mean survival time, dose: 200.0 mg/kg/injection, schedule: Q04DX003 (ip), vehicle: saline with Tween-80 98 % of control | [12] 90 % of control | endpoint: mean survival time, dose: 400.0 mg/kg/injection, schedule: Q04DX003 (ip), vehicle: saline with Tween-80 95 % of control

CC(C)/C=N\O
inactive: [14] 107 % of control | [15] 110 % of control | endpoint: mean survival time, dose: 200.0 mg/kg/injection, schedule: Q01DX001 (ip), vehicle: saline 107 % of control

CCC(=O)/C(=C\c1ccccc1Cl)C(C)=O
inactive: [6] 100 % of control | [7] 97 % of control

O=C(C[n+]1ccccc1)N/N=C/c1ccc(Cl)cc1
inactive: [6] 107 % of control

C1CCC(C2CCCC[N-]2)[N-]C1.CC(C)CC([NH-])C(=O)O.[Cl][Pt] (centres undefined)
inactive: endpoint: median survival time, dose: 10.0 mg/kg/injection, schedule: Q04DX003 (ip), vehicle: saline 96 % of control | endpoint: median survival time, dose: 20.0 mg/kg/injection, schedule: Q04DX003 (ip), vehicle: saline 100 % of control | endpoint: median survival time, dose: 40.0 mg/kg/injection, schedule: Q04DX003 (ip), vehicle: saline 97 % of control | endpoint: median survival time, dose: 80.0 mg/kg/injection, schedule: Q04DX003 (ip), vehicle: saline 101 % of control and 104 % of control | endpoint: median survival time, dose: 160.0 mg/kg/injection, schedule: Q04DX003 (ip), vehicle: saline 104 % of control | endpoint: median survival time, dose: 320.0 mg/kg/injection, schedule: Q04DX003 (ip), vehicle: saline 93 % of control

COC1C(C)OC(OC2CC(C)(O)Cc3cc4c(c(O)c32)C(=O)c2c(O)cc3c(c2C4=O)OC2OC3(C)C(O)C(N(C)C)C2O)C(OC)C1(C)OC (centres undefined)
inactive: endpoint: mean survival time, dose: 0.6 mg/kg/injection, schedule: Q01DX009 (ip), vehicle: other 115 % of control | endpoint: mean survival time, dose: 1.25 mg/kg/injection, schedule: Q04DX003 (ip), vehicle: other 101 % of control | endpoint: mean survival time, dose: 2.5 mg/kg/injection, schedule: Q04DX003 (ip), vehicle: other 109 % of control | endpoint: mean survival time, dose: 5.0 mg/kg/injection, schedule: Q04DX003 (ip), vehicle: other 112 % of control | endpoint: mean survival time, dose: 10.0 mg/kg/injection, schedule: Q04DX003 (ip), vehicle: other 109 % of control | endpoint: mean survival time, dose: 20.0 mg/kg/injection, schedule: Q04DX003 (ip), vehicle: other 102 % of control

NC(=O)C(=O)N/N=C/c1ccc2c(c1)CCC2
inactive: [13] 97 % of control | endpoint: mean survival time, dose: 25.0 mg/kg/injection, schedule: Q04DX003 (ip), vehicle: saline with Tween-80 94 % of control | endpoint: mean survival time, dose: 50.0 mg/kg/injection, schedule: Q04DX003 (ip), vehicle: saline with Tween-80 92 % of control

CCOC(OCC)c1cc(-c2cnc(N)nc2N)cc(Cl)c1Cl
inactive: [9] 98 % of control | [10] 97 % of control | [11] 97 % of control

CC1=NN(c2cc(Cl)c(S(=O)(=O)O)cc2Cl)C(=O)C1
inactive: [6] 92 % of control | [7] 92 % of control | [12] 86 % of control

O/N=C/c1ccccc1
inactive: endpoint: mean survival time, dose: 11.0 mg/kg/injection, schedule: Q01DX009 (ip), vehicle: saline with Tween-80 108 % of control | endpoint: mean survival time, dose: 16.5 mg/kg/injection, schedule: Q01DX009 (ip), vehicle: saline with Tween-80 94 % of control | endpoint: mean survival time, dose: 25.0 mg/kg/injection, schedule: Q01DX001 (ip), vehicle: saline 97 % of control | [8] 97 % of control | endpoint: mean survival time, dose: 37.5 mg/kg/injection, schedule: Q01DX009 (ip), vehicle: saline with Tween-80 95 % of control | [14] 97 % of control | [9] 97 % of control | [15] 101 % of control

Nc1ncnc2c1c1cnc(=O)[nH]c1n2C1OC(CO)C(O)C1O (centres undefined)
inactive: endpoint: mean survival time, dose: 20.0 mg/kg/injection, schedule: Q01DX005 (ip), vehicle: alkali diluted with water 97 % of control | endpoint: mean survival time, dose: 40.0 mg/kg/injection, schedule: Q01DX005 (ip), vehicle: alkali diluted with water 97 % of control | endpoint: mean survival time, dose: 80.0 mg/kg/injection, schedule: Q01DX005 (ip), vehicle: alkali diluted with water 96 % of control | endpoint: mean survival time, dose: 160.0 mg/kg/injection, schedule: Q01DX005 (ip), vehicle: alkali diluted with water 97 % of control | endpoint: mean survival time, dose: 320.0 mg/kg/injection, schedule: Q01DX005 (ip), vehicle: alkali diluted with water 110 % of control
